Source: patent US8278265B2, “Methods, kits and compositions comprising crotamine” (Fundacao de Amparo a Pesquisa do Estado de Sao Paulo—FAPESP, priority 2005, dated 2012)
Ends that are not written are not given here.

Tests used:
[1] = system: mice; test: Paralysis of the hind legs of mice after intraperitoneal injection; format: in vivo; details: sublethal dose, 50 μg of the conjugate (2.5 mg of toxin/kg) intraperitoneally, mouse
Protocol: When injected intraperitoneally, crotamine causes a quick paralysis, in less than 15 minutes, of the hind legs of mice, which is the typical physiological effect of this toxin.
Crotamine (1 mg) was suspended in 1 ml buffer (100 mM sodium carbonate/bicarbonate, pH 9.3) and conjugated to the fluorescent dye Cy3, a cyanine derivative supplied as a bifunctional form of an NHS-type ester in the Fluorolink Cy3 dye pack kit (Amersham Biosciences). To verify if Cy3-crotamine is biologically active, a sublethal dose, 50 μg of the conjugate (corresponding to 2.5 mg of toxin/kg) was intraperitoneally injected into a mouse. The crotamine linked to Cy3 complex caused the typical paralysis response of the hind legs in less than 15 minutes after injection.

[2] = system: blastocyts; test: Internalization of Cy3-conjugated crotamine in blastocysts in vitro; format: cell-based, murine; details: cell cytoplasm, FIG. 1
Protocol: Embryonic bodies (EBs) were obtained by the hanging drop method, as described above, using culture medium containing crotamine at various concentrations (100 μM to 0.1 μM), changing the medium every two to three days. To analyze the crotamine location in EBs under development, crotamine was substituted with crotamine linked to Cy3 (Cy3-crotamine) during the final 24 hours of incubation. Compact murine morulae (8-16 cells) were obtained from the oviduct and cultivated for 24 hours at 37° C. in 5% CO2, in individual microwells of V-bottom plates (Costar) with […] microwells in M16 medium (supplier: Sigma) and Cy3-crotamine (1-0.1 μM). After 24 hours of culture, normally developed blastocyst numbers were compared within the control and the experimental group.

[3] = system: cells from the peritoneal liquid and from the murine bone marrow; test: In vivo incorporation of Cy3-crotamine after intraperitoneal injection; set-up: species or system CD-1 strain mice
Protocol: In vitro assay: Semiconffluent cultures of pluripotent and differentiation ES cells (homogeneous cell population), as well as other cell cultures of normal and tumor origin, were kept in small laminar slides placed in 24-well plates containing appropriate culture medium. Cells were incubated for 2-3 minutes to 72 hours in the presence of Cy3-crotamine, under concentrations between 10 μM and 0.01 μM, or as control, just in the presence of the dye agent Cy3 diluted in 1 ml PBS (control). In in vivo assays, 1 ml of 1 μM Cy3-crotamine or the pure control dye agent Cy3 (1 ml) in PBS were intraperitoneally injected into a mouse (line CD-1). After 3 hours, cells from the bone marrow (mixed cell population), spleen and peritoneal liquid (mixed cell population) were isolated. Cells from the peritoneal liquid adhered to the microscope slides for one hour in RPMI medium supplemented with 10% FCS and no antibiotics at 37° C., under humid atmosphere and 5% CO2. In all assays, cells were washed twice with cold solutions of 0.1 M PBS, pH 7.4, fixed with 3.7% formaldehyde in PBS for fifteen minutes and washed twice with PBS. Microscope slides were prepared in the PBS/glycerol (1:1) solution. Alternatively, non-fixed cells were washed twice with PBS and observed in the confocal microscope.
(§1) To analyze the specific binding of Cy3-crotamine to chromatin and centrosome (a pair of small organelles named the centrioles), the same experimental procedure, as described above, was used, the sole difference consisting in the pre-treatment of ES cells and murine embryonic fibroblasts with 1 μM of free crotamine, followed by treatment with the conjugated crotamine, Cy3-crotamine, for 15 minutes more. A similar experiment was conducted in vivo, by injecting in mice both the conjugated and the free crotamine. As a control, 1 μM of Cy3-crotamine was used and incubated for 15 minutes. For the confocal microscopy analysis, cells were prepared as described above. Experiments with animals were carried out according to the international ethical recommendations for the use of animals.

[4] = system: centrosome; test: Marker for centrosome; format: cell-based; details: cells from the peritoneal liquid of mice and ES cells, FIG. 9
Protocol: as §1
Embryonic bodies, obtained according to the protocol as described above, after three days, adhered to small glass slides. On the following day, actively proliferating cells were simultaneously labeled with 5-bromo-2′-deoxyuridine (BrDU) and Cy3-crotamine. BrDU-labeled cell detection by the monoclonal antibody anti-BrDU (clone BU-1) was made according to manufacturer's recommendations (Amersham-Pharmacia Biotech). The secondary antibody was conjugated to the fluorescent compound FITC. […] Microscope slides were assembled in a PBS/glycerol solution (1:1) and analysed in a confocal microscope. […]

[5] = system: B16F10 cells tumor; test: Tumor labeling by cy3-crotamine; format: in vivo, Balb/c mouse; details: 5 μg/animal intraperitoneal, 24 hours after
Protocol: The cells were maintained in Dulbecco's modified Eagle's cell culture medium (DMEM; Invitrogen, Carlsbad, Calif.) supplemented with 15% fetal calf serum (FCS; Invitrogen). The cells were kept at 37° C. with humidity and 5% CO2. After preparing a cell suspension with about 5×10^6 cells/ml of PBS [phosphate buffered solution], approximately 0.2 ml of this suspension was subcutaneously or endovenously (retroorbital injection) injected into each Balb/c mouse, of 4 to 6 weeks-old with body weight between 16 to 20 g. For negative control, the animals were injected with 0.2 ml of PBS. Before setting up the experiments, the animals were kept under 12 hour light-dark cycle, and were allowed to have water and food ad libitum. All animals were caged and handled under ethical conditions according to international rules of animal care, stated by the International Animal Welfare Recommendations, and in accordance with the Guidelines for the Use of Animals in Biochemical Research
About 8 to 12 days after subcutaneous injection of B16F10 cells, the visible ‘melanoma’ tumors were removed and analyzed.
To observe the accumulation of fluorescently labeled crotamine [Cy3-crotamine] into tumors, injected mice were treated by a single intraperitoneal injection of 5 μg of cy3-crotamine/animal. 24 hours after, the animals were sacrificed and the ‘melanoma’ tumors and internal tissues were removed and analyzed [frozen/Tissue-Tek and Paraplast block preparations]. The frozen slices were stained with DAPI and analyzed by confocal microscopy. […]
To observe the accumulation of fluorescently labeled crotamine [Cy3-crotamine] into tumors, injected mice were treated by a single intraperitoneal injection of 5 μg of cy3-crotamine/animal. 24 hours after, the animals were sacrificed and the internal tissues (including those showing metastasis) were removed and analyzed [frozen/Tissue-Tek and Paraplast block preparations]. The frozen slices were stained with DAPI and analyzed by confocal microscopy.

[6] = system: 3T3 cell line; test: Transfection of GFP plasmid DNA by crotamine peptide fragments; format: cell-based, mouse; details: for treatment time giving the best result: 24 and 48 hours tested
Protocol: 3T3 cells (spontaneously immortalized primary mouse fibroblasts) or COS-7 (cells derived from kidney of African green monkey) were plated (1.5×10^5) in 6-wells plate (dimension of 6×35 mm), containing DMEM culture medium with 10% fetal bovine serum (FBS) and […] L-glutamine, with no antibiotics, 1 or 2 days before the transfection until reaching 60% to 80% confluence of the plate. Transfection was performed in DMEM medium ([…]) with 2% FBS and 80 or 100 μM chloroquine. Aggregates (crotamine plus 2 μg DNA in 0.2 ml HBM) were added in each well, on the cells in culture. After five hours of incubation at 37° C., under humid atmosphere and 5% CO2, the medium was substituted with another one containing 10% FBS. In the control culture wells, DNA was added in the same concentration and they were processed in the same way of experimental samples. After 24 and 48 hours, cells were washed with PBSA and fixed with 3.7% formaldehyde. The transfection medium was substituted with DMEM medium, containing 10% FBS, and the transgenic expression was then evaluated 24 to 48 hours after the transfection. The efficiency of transfection as determined by DNA-peptide aggregates was compared with that obtained by using lipofectamine, following routine protocol.
Two peptides were synthesized based on crotamine sequence, e.g. two sequences corresponding to fragments of crotamine, i.e. Crot2-18 ([…] (SEQ ID NO: 3)), herewithin designated as peptide 1, and Crot27-39 ([…] (SEQ ID NO: 4)), herewithin designated as peptide 2. The ability and efficiency of these two peptides to transfect cells in vitro and in vivo were analysed. The same protocol which was used for natural crotamine, as described in Example 9 was followed: Peptides were mixed with the plasmid DNA containing the gene coding for GFP (green fluorescent protein). After forming the complex with DNA, peptides were put on Petri dishes containing 3T3 cell line and left in the CO2 oven for 24 and 48 hours. Subsequently, cells were fixed and the result of transfection was analysed by confocal microscopy. As controls, the same cells were transfected by using Lipofectamin, as well as the crotamine molecule with 42 amino acid residues.

[7] = three hours after intraperitoneal injection, CD-1 mice
[8] = subcutaneous injection of B16F10

| Substance | time to typical paralysis response of the hind legs after injection [1] | fluorescence in blastocysts (confocal microscopy) [2] | fluorescence in cytoplasm of mouse megakaryocyte ([3]; FIG. 5E-G) | fluorescence after pretreatment with non-labeled crotamine ([3]; cells pretreated with non-labeled crotamine, megakaryocyte, FIG. 5H) | signal in cytoplasm of living cells of the peritoneal liquid ([3]; living cells, FIG. 3A-C) | signal in nucleus of living cells of the peritoneal liquid ([3]; living cells, FIG. 3A-C) | signals on cells from the murine bone marrow [3, 7] | signals on cytoplasm and nucleus of cells from the peritoneal liquid [3, 7] | marking of the centrosome cycle [4] | fluorescent signal inside the cell mass of B16F10 cells tumor ([5]; endovenous injection of B16F10) | fluorescent signal inside the cell mass of B16F10 cells tumor [5, 8] | localization in tumor cells (overlay with DAPI) [5, 8] | signals from actively proliferating 3T3 cells compared with the original crotamine [6] | treatment time giving the best result ([6]; 3T3 cells) [h] | green fluorescence corresponding to GFP expression ([6]; 3T3 cells, in comparison with peptide 2, confocal microscopy) |
| --- | --- | --- | --- | --- | --- | --- | --- | --- | --- | --- | --- | --- | --- | --- | --- |
| Cy3-crotamine: crotamine conjugated to the fluorescent dye Cy3, a cyanine derivative (YKQCHKKGGHCFPKEKICLPPSSDFGKMDCRWRWKCCKKGSG; disulfide (positions not given here); not fully specified (bridges); ends not checked; also: Cy3 dye label, site not given here; UniProt Q9PWF3 23-64, looked up) | less than 15 minutes | intense fluorescence | weak fluorescence | Strong fluorescence restricted to the cytoplasm | strong | moderate | strong signals | strong signals | functions as a marker for the centrosome cycle | strong fluorescent signal | strong fluorescent signal | observed in the nucleus of the cells |  |  |  |
| KMDCRWRWKCCKK [peptide 2] |  |  |  |  |  |  |  |  |  |  |  |  | no distinctive signals | 48 |  |
| KQCHKKGGHCFPKEKIC [peptide 1] |  |  |  |  |  |  |  |  |  |  |  |  | no distinctive signals | 48 | more intense green fluorescence |
